Reference: patent US9296704B2, “Substituted pyrimidines as protein kinase inhibitors” (CELGENE AVILOMICS RESEARCH, INC., priority 2007, dated 2016)

Tests used:
[1] = biological target: T1, JAK3 (Homo sapiens, UniProt P52333); experiment: Omnia assay for potency against JAK3; assay type: biochemical; details: read-out: JAK3 Inhibition
T1 sequence (P52333 1-1124): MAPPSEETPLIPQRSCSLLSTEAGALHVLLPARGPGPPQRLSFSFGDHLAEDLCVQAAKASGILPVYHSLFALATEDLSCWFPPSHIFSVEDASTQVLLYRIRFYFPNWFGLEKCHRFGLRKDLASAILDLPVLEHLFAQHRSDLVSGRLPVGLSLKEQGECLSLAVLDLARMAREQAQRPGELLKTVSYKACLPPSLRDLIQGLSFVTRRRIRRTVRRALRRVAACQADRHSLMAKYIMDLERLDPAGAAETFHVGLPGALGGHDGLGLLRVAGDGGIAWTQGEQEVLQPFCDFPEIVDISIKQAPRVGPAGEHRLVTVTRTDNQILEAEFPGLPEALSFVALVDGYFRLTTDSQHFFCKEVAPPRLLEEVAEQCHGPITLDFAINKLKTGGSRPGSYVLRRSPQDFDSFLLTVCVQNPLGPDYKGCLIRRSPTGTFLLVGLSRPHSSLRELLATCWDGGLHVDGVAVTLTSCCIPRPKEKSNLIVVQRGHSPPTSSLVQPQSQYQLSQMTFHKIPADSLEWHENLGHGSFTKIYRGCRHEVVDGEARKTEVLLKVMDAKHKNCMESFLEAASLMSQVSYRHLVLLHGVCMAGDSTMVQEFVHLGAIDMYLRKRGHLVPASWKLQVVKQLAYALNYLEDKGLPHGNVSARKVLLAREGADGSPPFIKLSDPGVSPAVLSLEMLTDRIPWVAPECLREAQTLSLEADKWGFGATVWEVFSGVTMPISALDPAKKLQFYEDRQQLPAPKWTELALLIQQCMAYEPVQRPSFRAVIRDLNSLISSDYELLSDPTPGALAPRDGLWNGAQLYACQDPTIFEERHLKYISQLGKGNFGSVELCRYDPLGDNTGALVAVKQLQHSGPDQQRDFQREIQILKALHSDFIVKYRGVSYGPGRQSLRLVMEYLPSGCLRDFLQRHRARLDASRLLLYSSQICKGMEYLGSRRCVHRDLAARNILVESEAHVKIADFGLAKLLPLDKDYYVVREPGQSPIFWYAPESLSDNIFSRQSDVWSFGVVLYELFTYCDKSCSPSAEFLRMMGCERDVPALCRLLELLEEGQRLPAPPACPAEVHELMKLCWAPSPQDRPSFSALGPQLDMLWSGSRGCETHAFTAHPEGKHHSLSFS
Description: (§1) The protocol below describes continuous-read kinase assays to measure inherent potency of compounds against active forms of EGFR (WT) and EGFR (T790M/L858R) enzymes. The mechanics of the assay platform are best described by the vendor (Invitrogen, Carlsbad, Calif.) on their website at the following URL: http://www.invitrogen.com/content.cfm?pageid=11338 or http://www.invitrogen.com/site/us/en/home/Products-and-Services/Applications/Drug-Discovery/Target-and-Lead-Identification-and-Validation/KinaseBiology/KB-Misc/Biochemical-Assays/Omnia-Kinase-Assays.html.
(§2) Briefly, 10× stocks of EGFR-WT (PV3872) from Invitrogen and EGFR-T790M/L858R (40350) from BPS Bioscience, San Diego, Calif., 1.13×ATP (AS001A) and appropriate Tyr-Sox conjugated peptide substrates (KCZI001) were prepared in 1× kinase reaction buffer consisting of 20 mM Tris, pH 7.5, 5 mM MgCl2, 1 mM EGTA, 5 mM β-glycerophosphate, 5% glycerol (10× stock, KB002A) and 0.2 mM DTT (DS001A). 5 μL of each enzyme were pre-incubated in a Corning (#3574) 384-well, white, non-binding surface microtiter plate (Corning, NY) for 30 min. at 27° C. with a 0.5 μL volume of 50% DMSO and serially diluted compounds prepared in 50% DMSO. Kinase reactions were started with the addition of 45 μL of the ATP/Tyr-Sox peptide substrate mix and monitored every 30-90 seconds for 60 minutes at λex360/λem485 in a Synergy^4 plate reader from BioTek (Winooski, Vt.). At the conclusion of each assay, progress curves from each well were examined for linear reaction kinetics and fit statistics (R^2, 95% confidence interval, absolute sum of squares). Initial velocity (0 minutes to ˜30 minutes) from each reaction was determined from the slope of a plot of relative fluorescence units vs time (minutes) and then plotted against inhibitor concentration to estimate IC50 from log [Inhibitor] vs Response, Variable Slope model in GraphPad Prism from GraphPad Software (San Diego, Calif.).
The Omnia Assay Protocol for potency assessment against JAK3 is performed in a substantially similar manner as that described in Example 25 above except that the modified JAK3-optimized reagent conditions are: • [JAK3]=5 nM, [ATP]=5 μM, [Y12-Sox]=5 μM (ATP KMapp ˜[…]).

[2] = biological target: T2, EGFR (T790M/L858R) (Homo sapiens, UniProt P00533, L858R/T790M); experiment: Omnia continuous-read kinase assay, EGFR (T790M/L858R); assay type: biochemical; details: read-out: EGFR (T790M/L858R) inhibiton
T2 construct: purchased BPS Bioscience 40350
Description: as §1, §2
(§3) The EGFR-WT- and EGFR T790M/L858R-modified optimized reagent conditions are: • [EGFR-WT]=5 nM, [ATP]=[…], [Y12-Sox]=[…]; and [EGFR-T790M/L858R]=3 nM, [ATP]=[…], [Y12-Sox]=[…].

[3] = biological target: BTK (Homo sapiens, UniProt Q06187); experiment: Omnia assay for potency against BTK; assay type: biochemical; details: read-out: BTK Inhibition
Description: as §1, §2
The Omnia Assay Protocol for potency assessment against BTK is performed in a substantially similar manner as that described in Example 25 above except that the modified BTK-optimized reagent conditions are: • [BTK]=5 nM, [ATP]=[…], [Y5-Sox]=[…] (ATP KMapp ˜[…]).

[4] = biological target: T3, EGFR (WT) (Homo sapiens, UniProt P00533); experiment: Omnia continuous-read kinase assay, EGFR (WT); assay type: biochemical; details: read-out: EGFR inhibtion
T3 construct: purchased Invitrogen PV3872
Description: as §1, §2, §3

[5] = biological target: ErbB1 (Homo sapiens, UniProt P00533); experiment: Z'-LYTE biochemical assay, ErbB1 kinase inhibition; details: @ 1 μM
Protocol: Compounds of the present invention were assayed as inhibitors of one or more of ErbB1, ErbB2, and/or ErbB4 in a manner substantially similar to the method described by Invitrogen Corp (Invitrogen Corporation, 1600 Faraday Avenue, Carlsbad, Calif., CA; http://www.invitrogen.com/downloads/Z-LYTE_Brochure—1205.pdf) using the Z′-LYTE™ biochemical assay procedure or similar biochemical assay. The Z′-LYTE™ biochemical assay employs a fluorescence-based, coupled-enzyme format and is based on the differential sensitivity of phosphorylated and non-phosphorylated peptides to proteolytic cleavage.

Chain of BTK (Q06187 whole entry): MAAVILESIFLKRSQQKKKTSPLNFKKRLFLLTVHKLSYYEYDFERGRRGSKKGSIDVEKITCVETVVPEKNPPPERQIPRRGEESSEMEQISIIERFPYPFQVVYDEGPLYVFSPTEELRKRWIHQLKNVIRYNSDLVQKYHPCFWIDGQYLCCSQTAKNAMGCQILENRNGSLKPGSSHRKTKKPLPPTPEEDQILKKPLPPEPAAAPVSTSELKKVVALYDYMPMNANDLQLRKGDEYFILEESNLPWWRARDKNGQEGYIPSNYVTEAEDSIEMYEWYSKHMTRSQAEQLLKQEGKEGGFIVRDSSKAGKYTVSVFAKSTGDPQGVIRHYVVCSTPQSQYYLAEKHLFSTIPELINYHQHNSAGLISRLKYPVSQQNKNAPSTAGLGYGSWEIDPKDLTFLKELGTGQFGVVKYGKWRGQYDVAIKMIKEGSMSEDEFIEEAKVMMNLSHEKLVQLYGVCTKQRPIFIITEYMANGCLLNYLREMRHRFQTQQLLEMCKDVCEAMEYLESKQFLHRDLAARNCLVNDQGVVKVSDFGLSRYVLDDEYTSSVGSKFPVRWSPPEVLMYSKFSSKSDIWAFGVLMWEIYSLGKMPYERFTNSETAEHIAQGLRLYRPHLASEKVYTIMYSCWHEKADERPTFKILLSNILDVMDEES
T2 sequence (P00533 25-1210 T790M/L858R): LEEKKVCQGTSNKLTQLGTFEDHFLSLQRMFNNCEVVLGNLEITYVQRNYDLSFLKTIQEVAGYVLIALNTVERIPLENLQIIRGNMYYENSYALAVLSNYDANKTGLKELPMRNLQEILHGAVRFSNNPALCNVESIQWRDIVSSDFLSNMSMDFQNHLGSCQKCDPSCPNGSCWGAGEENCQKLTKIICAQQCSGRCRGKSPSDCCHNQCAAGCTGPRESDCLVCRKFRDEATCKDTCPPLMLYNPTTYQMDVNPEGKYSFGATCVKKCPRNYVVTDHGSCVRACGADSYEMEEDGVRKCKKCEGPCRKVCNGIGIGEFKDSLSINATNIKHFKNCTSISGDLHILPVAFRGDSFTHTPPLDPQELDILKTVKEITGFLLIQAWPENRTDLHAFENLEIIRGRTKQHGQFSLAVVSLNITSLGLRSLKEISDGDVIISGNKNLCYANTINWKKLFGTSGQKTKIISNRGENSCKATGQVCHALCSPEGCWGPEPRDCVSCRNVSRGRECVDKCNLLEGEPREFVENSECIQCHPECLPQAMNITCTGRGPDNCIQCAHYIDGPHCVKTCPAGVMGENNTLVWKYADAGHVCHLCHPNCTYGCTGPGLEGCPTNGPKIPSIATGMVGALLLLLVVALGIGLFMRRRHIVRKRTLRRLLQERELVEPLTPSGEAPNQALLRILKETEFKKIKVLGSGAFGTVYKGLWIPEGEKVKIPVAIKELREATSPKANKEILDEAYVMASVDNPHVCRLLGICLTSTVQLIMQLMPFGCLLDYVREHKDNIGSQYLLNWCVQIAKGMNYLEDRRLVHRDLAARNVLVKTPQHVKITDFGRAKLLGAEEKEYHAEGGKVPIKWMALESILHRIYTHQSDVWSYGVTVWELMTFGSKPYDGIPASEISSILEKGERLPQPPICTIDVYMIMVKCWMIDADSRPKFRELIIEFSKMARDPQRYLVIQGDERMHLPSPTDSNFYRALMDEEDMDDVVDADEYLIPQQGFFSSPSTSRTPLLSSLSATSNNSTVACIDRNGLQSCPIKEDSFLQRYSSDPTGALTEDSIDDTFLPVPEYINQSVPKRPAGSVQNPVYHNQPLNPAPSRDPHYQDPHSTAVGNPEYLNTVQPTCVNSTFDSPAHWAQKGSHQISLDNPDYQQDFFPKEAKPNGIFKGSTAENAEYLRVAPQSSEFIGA
T3 sequence (P00533 25-1210): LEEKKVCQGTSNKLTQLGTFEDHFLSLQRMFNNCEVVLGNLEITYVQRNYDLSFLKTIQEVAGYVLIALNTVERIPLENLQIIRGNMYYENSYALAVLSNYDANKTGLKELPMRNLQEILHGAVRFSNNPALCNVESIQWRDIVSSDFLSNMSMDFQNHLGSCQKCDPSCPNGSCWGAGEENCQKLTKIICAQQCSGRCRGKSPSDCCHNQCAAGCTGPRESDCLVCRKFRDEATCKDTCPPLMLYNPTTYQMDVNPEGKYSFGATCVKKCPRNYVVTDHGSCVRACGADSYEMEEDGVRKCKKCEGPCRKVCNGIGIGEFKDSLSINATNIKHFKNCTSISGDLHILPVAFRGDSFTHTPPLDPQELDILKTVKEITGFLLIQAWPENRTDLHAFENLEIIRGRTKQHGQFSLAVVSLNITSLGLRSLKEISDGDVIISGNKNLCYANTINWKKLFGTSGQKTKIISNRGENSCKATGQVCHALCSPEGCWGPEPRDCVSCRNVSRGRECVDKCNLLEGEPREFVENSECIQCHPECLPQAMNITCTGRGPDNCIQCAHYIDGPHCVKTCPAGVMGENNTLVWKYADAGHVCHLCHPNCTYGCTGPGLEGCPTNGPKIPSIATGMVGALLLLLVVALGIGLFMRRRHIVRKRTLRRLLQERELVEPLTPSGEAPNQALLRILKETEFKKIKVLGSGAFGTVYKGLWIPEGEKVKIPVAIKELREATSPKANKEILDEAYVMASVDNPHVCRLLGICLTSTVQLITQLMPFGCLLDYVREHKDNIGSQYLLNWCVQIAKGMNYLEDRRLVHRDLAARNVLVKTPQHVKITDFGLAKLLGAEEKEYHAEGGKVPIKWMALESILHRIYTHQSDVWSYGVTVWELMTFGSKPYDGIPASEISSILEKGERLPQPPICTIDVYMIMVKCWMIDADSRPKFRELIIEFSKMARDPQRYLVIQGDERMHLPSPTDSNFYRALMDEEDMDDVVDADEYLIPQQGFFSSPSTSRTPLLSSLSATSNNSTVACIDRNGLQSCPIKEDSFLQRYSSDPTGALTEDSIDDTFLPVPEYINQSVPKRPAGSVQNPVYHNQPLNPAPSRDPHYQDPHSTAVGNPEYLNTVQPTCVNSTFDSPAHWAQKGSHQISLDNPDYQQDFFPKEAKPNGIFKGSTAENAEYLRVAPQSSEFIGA
Chain of ErbB1 (P00533 25-1210): as above

| SMILES | IC50 [1] [µM] | IC50 [2] [µM] | IC50 [3] [µM] | IC50 [4] [µM] | inhibition at 1 µM [5] [%] |
| --- | --- | --- | --- | --- | --- |
| C#Cc1cccc(Nc2cc(Nc3cccc(C#C)c3)ncn2)c1 [I-11, N^4,N^6-bis(3-ethynylphenyl)pyrimidine-4,6-diamine] | ≥ 10 | ≥ 10 | ≥ 10 | 0.01 to 0.1 | 79 |
| C#Cc1cccc(Nc2cc(Nc3cccc(Br)c3)ncn2)c1 [I-12, N^4-(3-Bromophenyl)-N^6-(3-ethynylphenyl)pyrimidine-4,6-diamine] | ≥ 10 | ≥ 10 | ≥ 10 | 0.01 to 0.1 | 82 |
| CN(C)C/C=C/C(=O)Nc1cccc(Nc2cc(Nc3ccc(OCc4cccc(F)c4)c(Cl)c3)ncn2)c1 [I-46] | 1 to 10 | ≤ 0.01 | 0.1 to 1 | ≤ 0.01 | – |
| N#CC1(C(=O)Nc2cccc(Nc3cc(Nc4ccc(F)c(Cl)c4)ncn3)c2)CC1 [I-47, N-[3-(6-{3-chloro-4-fluorophenylamino}pyrimidin-4-yl)amino]phenyl-1-cyanocyclopropanecarboxamide] | ≥ 10 | ≥ 10 | ≥ 10 | ≤ 0.01 | – |
| CN(C)C/C=C/C(=O)N(C)c1cccc(Nc2cc(Nc3ccc(F)c(Cl)c3)ncn2)c1 [I-48] | ≥ 10 | 0.1 to 1 | 0.01 to 0.1 | 0.1 to 1 | – |
| O=C(CCl)Nc1cccc(Nc2cc(Nc3ccc(F)c(Cl)c3)ncn2)c1 [I-49, 2-chloro-N-{3-[6-(3-chloro-4-fluorophenylamino)-pyrimidin-4-ylamino]-phenyl}-acetamide] | ≤ 0.01 | ≤ 0.01 | ≤ 0.01 | ≤ 0.01 | – |
| O=C(Nc1cccc(Nc2cc(Nc3ccc(F)c(Cl)c3)ncn2)c1)C1(C(F)(F)F)CC1 [I-51, N-[3-(6-{3-chloro-4-fluorophenyl}aminopyrimidin-4-yl)aminophenyl]-1-trifluoromethylcyclopropanecarboxamide] | ≥ 10 | 1 to 10 | ≥ 10 | ≤ 0.01 | – |
| C=CC(=O)N(C)c1cccc(Nc2cc(Nc3ccc(F)c(Cl)c3)ncn2)c1 [I-53, N-3-[6-(3-chloro-4-fluorophenylamino)pyrimidin-4-yl]aminophenyl-N-methyl-2-propenamide] | 0.1 to 1 | 0.1 to 1 | 0.01 to 0.1 | 0.01 to 0.1 | – |
| Cc1ccc(NC(=O)/C=C/CN(C)C)cc1Nc1cc(Nc2ccc(F)c(Cl)c2)ncn1 [I-54, (E)-N-[3-(6-{3-Chloro-4-fluorophenyl}amino-pyrimidin-4-ylamino)-4-methylphenyl]-4-(dimethylamino)but-2-enamide] | 1 to 10 | ≤ 0.01 | 0.1 to 1 | ≤ 0.01 | – |
| C=CC(=O)Nc1cccc(Nc2cc(Nc3ccc(Br)cc3F)ncn2)c1 [I-55] | 0.01 to 0.1 | ≤ 0.01 | 0.01 to 0.1 | ≤ 0.01 | – |
| O=C(/C=C/CN1CCCC1)Nc1cccc(Nc2cc(Nc3ccc(F)c(Cl)c3)ncn2)c1 [I-56] | 0.01 to 0.1 | ≤ 0.01 | 0.01 to 0.1 | ≤ 0.01 | – |
| Cc1cccc(Nc2cc(Nc3cccc(NC(=O)/C=C/CN4CCNCC4)c3)ncn2)c1 [I-57, (E)-N-3-(6-[3-methylphenyl]aminopyrimidin-4-yl)aminophenyl-4-piperazinyl-2-butenamide] | ≥ 10 | 0.1 to 1 | 1 to 10 | – | – |
| C#CCN(C)C/C=C/C(=O)Nc1cccc(Nc2cc(Nc3cccc(C)c3)ncn2)c1 [I-58, (E)-N-3-(6-[3-methylphenyl]aminopyrimidin-4-yl)aminophenyl-4-(methyl-prop-2-ynyl)amino-2-butenamide] | 0.1 to 1 | 0.1 to 1 | 1 to 10 | – | – |
| COc1ccc(NC(=O)/C=C/CN(C)C)cc1Nc1cc(Nc2ccc(F)c(Cl)c2)ncn1 [I-59] | 1 to 10 | ≤ 0.01 | 0.1 to 1 | ≤ 0.01 | – |
| CC(=O)N1CCN(C/C=C/C(=O)Nc2cccc(Nc3cc(Nc4cccc(C)c4)ncn3)c2)CC1 [I-60, (E)-N-3-(6-[3-methylphenylamino]-pyrimidin-4-yl)aminophenyl-4-(4-acetylpiperazin-1yl)-2-butenamide] | 1 to 10 | 0.1 to 1 | 1 to 10 | 1 to 10 | – |
| [2H]C([2H])([2H])N(C/C=C/C(=O)Nc1cccc(Nc2cc(Nc3ccc(F)c(Cl)c3)ncn2)c1)C([2H])([2H])[2H] [I-61] | 0.01 to 0.1 | ≤ 0.01 | 0.01 to 0.1 | – | – |
| C=CC(=O)Nc1cccc(Nc2cc(Nc3ccccc3)ncn2)c1 [I-67, N-3-[6-(phenylamino)-pyrimidin-4-yl]aminophenylpropenamide] | ≤ 0.01 | ≤ 0.01 | 0.01 to 0.1 | ≤ 0.01 | – |
